Test results taken from ChEMBL document CHEMBL5131552, “Diazepinone Compounds as Sppl2a Inhibitors for Treating Autoimmune Diseases and Lymphomas” (ACS Med Chem Lett, 2022).

Target: T1, Signal peptide peptidase-like 2A (Homo sapiens, UniProt Q8TCT8)
T1 sequence (Q8TCT8 whole entry): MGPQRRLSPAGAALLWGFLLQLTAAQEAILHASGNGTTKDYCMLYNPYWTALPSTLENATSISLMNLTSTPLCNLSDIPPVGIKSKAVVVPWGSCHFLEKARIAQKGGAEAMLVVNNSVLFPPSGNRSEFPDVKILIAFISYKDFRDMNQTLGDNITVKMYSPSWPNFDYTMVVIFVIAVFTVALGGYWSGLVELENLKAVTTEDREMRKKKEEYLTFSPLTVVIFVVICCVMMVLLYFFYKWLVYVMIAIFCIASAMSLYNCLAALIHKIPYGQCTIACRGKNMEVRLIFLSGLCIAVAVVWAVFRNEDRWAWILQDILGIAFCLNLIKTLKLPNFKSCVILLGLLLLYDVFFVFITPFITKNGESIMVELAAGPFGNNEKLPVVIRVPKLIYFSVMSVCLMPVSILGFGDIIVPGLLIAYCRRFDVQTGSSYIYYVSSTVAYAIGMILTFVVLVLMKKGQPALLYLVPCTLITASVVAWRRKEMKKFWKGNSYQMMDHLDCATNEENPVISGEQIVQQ
Experiment: Inhibition of human SPPL2A expressed in human U2OS cells assessed as nuclear mask transferring to EGFP channel using EGFP-labeled TNFalpha (aa1-76) NTF as substrate and measured after 24 hrs by Hoechst staining based translocation assay
Format: cell-based

SMILES: CC(C)C(=O)Nc1nc(Cl)c(NC(=O)C[C@@H](C)C(=O)N[C@@H]2C(=O)N3CCCN3Cc3ccccc32)s1
- IC50: 1 nM
